Experimental data published in patent US7687496B2, “C7-substituted camptothecin analogs” (priority 2007, dated 2010).
Where two headings read alike, the source gives them in different places.

Legend:
[1] = cited from earlier work
[2] = system: advanced gastrointestinal cancer; settings: cited from earlier work
[3] = doses of 20 to 30 mg/m^2; cited from earlier work
[4] = system: advanced malignant melanoma; settings: fifteen patients, 90-360 mg/m^2 every 2 weeks; cited from earlier work
[5] = clinical studies in Japan; cited from earlier work
[6] = system: A2780/WT (wild-type) cells; test: Sulforhodamine B (SRB) cytotoxicity assay in A2780/WT cells; format: cell-based; settings: Homo sapiens
Protocol: (§1) Each of the testing conditions used in this study in both A2780/WT (wild-type) and A2780/DX5 cells were repeated in five to fifteen experiments that were performed on separate days. Each experiment consisted of one microtiter plate with at least eight individual assays of a given drug treatment condition on the plate. The sulforhodamine B (SRB) assay was used to assess cytotoxicity and absorbance at 570 nm (A570) in order to calculate the percentage of cell control (or percent cell survival) for the various treatment conditions in the plate wells.
(§2) Roswell Park Memorial Institute (RPMI 1640) medium, fetal bovine serum (FBS), and L-glutamine were purchased from Gibco BRL. Drugs were dissolved in sterile dimethylsulfoxide (DMSO), from American Type Culture Collection (ATCC) for stock solutions (2.5 to 5.0 mM). Subsequent dilutions were made using cell culture medium (prior to adding the drug to cells). SRB was purchased from Sigma and dissolved in 1.0 percent acetic acid. Trichloroacetic acid was purchased from VWR International.
(§3) Cells were manipulated in a Class IIA/B3 Biological Safety Cabinet (Forma Scientific) and maintained at 37° C. in a humidified atmosphere containing 5% CO2 in a water-jacketed cell culture incubator (Forma Scientific). Cells were counted using a Coulter-Z1 counter (Beckman-Coulter). Following drug treatment, plates were washed using a Biomek 2000 station (Beckman) and, following exposure to SRB dye, plates were washed using an automated plate washer (Model EL404, Bio-Tek Instruments). Percentage of control was correlated to A570 values and determined using a Model EL800 plate reader (Bio-Tek Instruments).
Population doubling times for the two cell lines used in this study encompassed a total of five cell doublings corresponding to approximately 5 days for A2780/WT and A2780/DX5 cells. A2780/WT and A2780/DX5 cells were cultured in RPMI 1640 medium supplemented with 10% fetal bovine serum and 1 mM of L-glutamine. Both cell lines were maintained as monolayered cultures in T-25 or T-75 flasks and then seeded to microtiter plate wells for experiments described herein. Prior to SRB assays, cell viability was monitored by evaluation of microtiter plate wells. […]
The sulforhodamine B (SRB) cytotoxicity assay (see, Skehan P, et al., New colorimetric cytotoxicity assay for anticancer-drug screening. J. Natl. Cancer Inst. 82:1107-1112 (1990)) was used to determine the cytotoxic effects of BNP1350, SN-38, topotecan, 9-NH2-CPT, and 9-NO2-CPT on cell growth in vitro. […] Plates were agitated (gently) for 5 minutes and the absorbance values of the SRB dye-protein adduct at a 570 nm wavelength (A570) were determined using an automated microtiter plate reader equipped with an A570 filter (Model EL800, BioTek Instruments).

[7] = system: A2780/DX5 cells; test: Sulforhodamine B (SRB) cytotoxicity assay in A2780/DX5 cells; format: cell-based; settings: for IC50 Ratio: A2780/DX5 versus A2780/WT; for IC50: Homo sapiens, A2780, read-out: A2780/DX5
Protocol: as §1, §2, §3
Population doubling times for the two cell lines used in this study encompassed a total of five cell doublings corresponding to approximately 5 days for A2780/WT and A2780/DX5 cells. A2780/WT and A2780/DX5 cells were cultured in RPMI 1640 medium supplemented with 10% fetal bovine serum and 1 mM of L-glutamine. Both cell lines were maintained as monolayered cultures in T-25 or T-75 flasks and then seeded to microtiter plate wells for experiments described herein. Prior to SRB assays, cell viability was monitored by evaluation of microtiter plate wells. Dead cells detach and float while living cells remain attached to the bottom of the cell well.
The sulforhodamine B (SRB) cytotoxicity assay (see, Skehan P, et al., New colorimetric cytotoxicity assay for anticancer-drug screening. J. Natl. Cancer Inst. 82:1107-1112 (1990)) was used to determine the cytotoxic effects of BNP1350, SN-38, topotecan, 9-NH2-CPT, and 9-NO2-CPT on cell growth in vitro. Briefly, after the medium was aspirated from individual plate wells, trichloroacetic acid (100 μL of 10.0% solution) was added to each well, and the plates were incubated at 4° C. for at least 1 hour. The plates were washed five-times with water using an automated microplate washer (Model EL 404, Bio-Tek Instruments), SRB solution (100 μL of 0.4 grams SRB dissolved in 100 mL 1.0 percent acetic acid) was added, and plates remained at room temperature for 15 minutes. The plates were then washed five-times using acetic acid (1.0%), air dried, and bound dye was solubilized in Tris base (150 μL, 10 mM). Plates were agitated (gently) for 5 minutes and the absorbance values of the SRB dye-protein adduct at a 570 nm wavelength (A570) were determined using an automated microtiter plate reader equipped with an A570 filter (Model EL800, BioTek Instruments).

[8] = system: human plasma proteins; test: Percent of free camptothecin analogs in human plasma (dialysis, HPLC); settings: 100 nM compound concentrations
Protocol: Stocks of various camptothecin analogs were prepared in DMSO. Phosphate buffer was prepared from analytical grade reagents and regenerated cellulose membranes with 12-14 kD molecular weight cut-off (MWCO) were purchased from Spectrum Laboratories. Samples were incubated 48 hours or longer at room temperature until equilibrium was reached. Experiments to determine the percent of free camptothecin/Karenitecin® analogs were performed in triplicate. Optimum HPLC detection conditions for each camptothecin/Karenitecin® analog were developed using traditional HPLC methods.

[9] = system: panel of over 20 human cancer cell lines
[10] = carboxylate form versus lactone form; cited from earlier work
[11] = 5-day course, 15 mg/m^2 × 5, 9 patients treated
[12] = 5-day course, 17 mg/m^2 × 5, 5 patients treated
[13] = 5-day course, 20 mg/m^2 × 5, 10 patients treated
[14] = single-dose method, 110 mg/m^2, 2 patients treated
[15] = single-dose method, 120 mg/m^2, 7 patients treated
[16] = single-dose method, 180 mg/m^2, 9 patients treated
[17] = 5-day course (27 patients total), 4 wks
[18] = 5-day course (27 patients total), 8 wks
[19] = 5-day course (27 patients total), 12 wks
[20] = single-dose method (34 patients total), 3 wks
[21] = single-dose method (34 patients total), 6 wks
[22] = single-dose method (34 patients total), 9 wks
[23] = single-dose method (34 patients total), 12 wks

Compound: CC[C@@]1(O)C(=O)OCc2c1cc1n(c2=O)Cc2cc3ccccc3nc2-1 [CPT sodium]
- Cystitis ([1]; 5-day course (P < 0.05)): 48 (P < 0.05) % of 27 Patients
- Number of patients with cystitis ([1]; 5-day course, 11 mg/m^2 × 5, 2 patients treated): 1 patients
- Number of patients with cystitis [1, 11]: 4 patients
- Number of patients with diarrhea [1, 11]: 1 patients
- Number of patients with cystitis [1, 12]: 2 patients
- Number of patients with diarrhea [1, 12]: 4 patients
- Number of patients with cystitis [1, 13]: 6 patients
- Number of patients with diarrhea [1, 13]: 4 patients
- Number of patients with diarrhea ([1]; 5-day course, 22 mg/m^2 × 5, 1 patient treated): 1 patients
- Number of patients with cystitis ([1]; single-dose method, 100 mg/m^2, 6 patients treated): 2 patients
- Number of patients with cystitis [1, 14]: 1 patients
- Number of patients with diarrhea [1, 14]: 1 patients
- Number of patients with cystitis [1, 15]: 2 patients
- Number of patients with diarrhea [1, 15]: 4 patients
- Number of patients with cystitis [1, 16]: 3 patients
- Number of patients with diarrhea [1, 16]: 2 patients
- Objective results: Improved [2, 17]: 1 patients
- Objective results: Stable [2, 17]: 12 patients
- Objective results: Worse [2, 17]: 14 patients
- Objective results: Stable [2, 18]: 7 patients
- Objective results: Worse [2, 18]: 20 patients
- Objective results: Stable [2, 19]: 6 patients
- Objective results: Worse [2, 19]: 21 patients
- patients with evidence of partial objective improvement ([2]; after 2 months (8 or 9 weeks), 61 patients): two of their 61 patients
- Objective results: Improved ([2]; single-dose method (34 patients total), 3 wks after start of therapy): 4 patients
- Objective results: Stable [2, 20]: 17 patients
- Objective results: Worse [2, 20]: 13 patients
- Objective results: Improved [2, 21]: 2 patients
- Objective results: Stable [2, 21]: 11 patients
- Objective results: Worse [2, 21]: 21 patients
- Objective results: Improved [2, 22]: 2 patients
- Objective results: Stable [2, 22]: 8 patients
- Objective results: Worse [2, 22]: 24 patients
- Objective results: Stable [2, 23]: 6 patients
- Objective results: Worse [2, 23]: 28 patients
- dose-limiting bladder toxicity [3]: three patients
- less pronounced transient tumor regression [4]: three patients
- myelosuppression [4]: 11 patients
- patients with a 50% or greater decrease in tumor diameter [4]: None of the patients

Compound: CCc1c2c(nc3ccc(OC(=O)N4CCC(N5CCCCC5)CC4)cc13)-c1cc3c(c(=O)n1C2)COC(=O)[C@]3(O)CC [CPT-11, 7-ethyl-10-[4-(1-piperidino)-1-piperidino]carbonyloxy camptothecin]
- patient deaths directly attributable to drug toxicity [5]: approximately 100 patient deaths

Compound: C=C[Si](C)(C)CCc1c2c(nc3ccccc13)-c1cc3c(c(=O)n1C2)COC(=O)[C@]3(O)CC [Compound 1, 11-(4S)-[2-(dimethylvinylsilanyl)-ethyl]-4-ethyl-4-hydroxy-1,12-dihydro-4H-2-oxa-6,12a-diaza-dibenzo[b,h]fluorene-3,13-dione]
- IC50 ([6]; SRB assay, A2780/WT cells, read-out: A2780/WT): 13 nM
- IC50 Ratio [7]: 1.68
- IC50 [7]: 21.8 nM
- Percent of Free Camptothecin Analogs in Human Plasma [8]: 2%

Compound: CC[C@@]1(O)C(=O)OCc2c1cc1n(c2=O)Cc2c-1nc1ccccc1c2CC[Si](C)(C)CSC(C)=O [Compound 9, thioacetic acid S-({[2-(4-ethyl-4-hydroxy-3,13-dioxo-3,4,12,13-tetrahydro-1H-2-oxa-6,12a-diaza-dibenzo[b,h]fluoren-11-yl)-ethyl]-dimethylsilanyl}-methyl)ester]
- IC50 ([6]; A2780, read-out: A2780/WT): 64.7 nM
- IC50 Ratio [7]: 1.94
- IC50 [7]: 125 nM

Compound: CC[C@@]1(O)C(=O)OCc2c1cc1n(c2=O)Cc2c-1nc1ccccc1c2CC[Si](C)(C)CCCOC(=O)C1CCC1 [Compound 62, Cyclobutanecarboxylic acid 3-{[2-(4-ethyl-4-hydroxy-3,13-dioxo-3,4,12,13-tetrahydro-1H-2-oxa-6,12a-diaza-dibenzo[b,h]fluoren-11-yl)-ethyl]-dimethyl-silanyl}-propyl ester]
- IC50 ([6]; A2780, read-out: A2780/WT): 10.4 nM
- IC50 Ratio [7]: 3.77
- IC50 [7]: 39.2 nM

Compound: CC[C@@]1(O)C(=O)OCc2c1cc1n(c2=O)Cc2c-1nc1ccccc1c2CC[Si](C)(C)CCCOC(=O)C1=CCNO1 [Compound 64, 2,3-Dihydro-isoxazole-5-carboxylic acid 3-{[2-(4-ethyl-4-hydroxy-3,13-dioxo-3,4,12,13-tetrahydro-1H-2-oxa-6,12a-diaza-dibenzo[b,h]fluoren-11-yl)-ethyl]-dimethyl-silanyl}-propyl ester]
- IC50 ([6]; A2780, read-out: A2780/WT): 14 nM
- IC50 Ratio [7]: 4.27
- IC50 [7]: 59.8 nM

Compound: CC[C@@]1(O)C(=O)OCc2c1cc1n(c2=O)Cc2c-1nc1ccccc1c2CC[Si](C)(C)C [Karenitecin, (4S)-4-ethyl-4-hydroxy-11-[2-(trimethylsilyl)ethyl]-1H-pyrano[3′:4′:6,7]indolizino[1,2-b]quinoline-3,14(4H,12H)-dione]
- antitumor potency compared with Topotecan and SN-38 [9]: significantly more potent antitumor agent than either Topotecan™ or SN-38

Compound: CC[C@@](O)(C(=O)O)c1cc2n(c(=O)c1CO)Cc1cc3ccccc3nc1-2 [carboxylate form of CPT]
- reduction of anti-tumor activity [10]: at least 10 fold
